# Data: PubChem BioAssay (NCI)
#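 At the GI50, growth is halved. TGI is the concentration that stops growth completely.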
# Tests used:
# Test in all cases: DTP human tumour cell line panel, 384-well format
# SF-295 CNS = test system: SF-295 CNS
# EKVX NSCLC = test system: EKVX NSCLC
# SNB-75 CNS = test system: SNB-75 CNS
# A549 NSCLC = test system: A549 NSCLC
# HCT-15 colon = test system: HCT-15 colon
# OVCAR-3 ovarian = test system: OVCAR-3 ovarian
# HS 578T breast = test system: HS 578T breast
# RPMI-8226 leukemia = test system: RPMI-8226 leukemia
# RXF 393 renal = test system: RXF 393 renal
# HOP-92 NSCLC = test system: HOP-92 NSCLC
# MOLT-4 leukemia = test system: MOLT-4 leukemia
# MDA-MB-435 melanoma = test system: MDA-MB-435 melanoma
# SF-539 CNS = test system: SF-539 CNS
# A498 renal = test system: A498 renal
# KM12 colon = test system: KM12 colon
# HT29 colon = test system: HT29 colon
# SK-MEL-28 melanoma = test system: SK-MEL-28 melanoma
# UACC-257 melanoma = test system: UACC-257 melanoma
# HL-60(TB) leukemia = test system: HL-60(TB) leukemia
# NCI-H322M lung = test system: NCI-H322M lung
# MALME-3M melanoma = test system: MALME-3M melanoma
# LOX IMVI melanoma = test system: LOX IMVI melanoma
# MCF7 breast = test system: MCF7 breast
# SN12C renal = test system: SN12C renal
# CCRF-CEM leukemia = test system: CCRF-CEM leukemia
# NCI-H23 lung = test system: NCI-H23 lung
# TK-10 renal = test system: TK-10 renal
# DU-145 prostate = test system: DU-145 prostate
# ACHN renal = test system: ACHN renal
# T-47D breast = test system: T-47D breast
# NCI-H226 lung = test system: NCI-H226 lung
# U251 glioblastoma = test system: U251 glioblastoma
# PC-3 prostate = test system: PC-3 prostate
# NCI-H460 NSCLC = test system: NCI-H460 NSCLC
# MDA-MB-231 breast = test system: MDA-MB-231 breast
# HCT-116 colon = test system: HCT-116 colon
# SF-268 CNS = test system: SF-268 CNS
# UACC-62 melanoma = test system: UACC-62 melanoma
# SK-OV-3 ovarian = test system: SK-OV-3 ovarian
# OVCAR-5 ovarian = test system: OVCAR-5 ovarian
# SNB-19 CNS = test system: SNB-19 CNS
# 786-0 renal = test system: 786-0 renal
# UO-31 renal = test system: UO-31 renal
# HOP-62 NSCLC = test system: HOP-62 NSCLC
# HCC-2998 colon = test system: HCC-2998 colon
# NCI-H522 lung = test system: NCI-H522 lung
# SK-MEL-5 melanoma = test system: SK-MEL-5 melanoma
# MDA-MB-468 breast = test system: MDA-MB-468 breast
# M14 melanoma = test system: M14 melanoma
# IGROV1 ovarian = test system: IGROV1 ovarian
# COLO 205 colon = test system: COLO 205 colon
# OVCAR-8 ovarian = test system: OVCAR-8 ovarian
# BT-549 breast = test system: BT-549 breast
# CAKI-1 renal = test system: CAKI-1 renal
# OVCAR-4 ovarian = test system: OVCAR-4 ovarian
# SW-620 colon = test system: SW-620 colon
# NCI/ADR-RES ovarian = test system: NCI/ADR-RES ovarian
smiles,measurement,setting,value
C[C@H]1Oc2cc(cnc2N)-c2c(nn(C)c2C#N)CN(C)C(=O)c2ccc(F)cc21,GI50,SF-295 CNS,72.8 µM
same,TGI,SF-295 CNS,> 100 µM
same,GI50,EKVX NSCLC,9.26 µM
same,TGI,EKVX NSCLC,44.1 µM
same,GI50,SNB-75 CNS,34.4 µM
same,TGI,SNB-75 CNS,> 84.7 µM
same,GI50,A549 NSCLC,22 µM
same,TGI,A549 NSCLC,> 100 µM
same,GI50,HCT-15 colon,91.9 µM
same,TGI,HCT-15 colon,> 100 µM
same,GI50,OVCAR-3 ovarian,> 88 µM
same,TGI,OVCAR-3 ovarian,> 100 µM
same,GI50,HS 578T breast,19.9 µM
same,TGI,HS 578T breast,> 100 µM
same,GI50,RPMI-8226 leukemia,57 µM
same,TGI,RPMI-8226 leukemia,> 100 µM
same,GI50,RXF 393 renal,11.6 µM
same,TGI,RXF 393 renal,> 63.1 µM
same,GI50,HOP-92 NSCLC,11 µM
same,TGI,HOP-92 NSCLC,67.6 µM
same,GI50,MOLT-4 leukemia,4.84 µM
same,TGI,MOLT-4 leukemia,18.8 µM
same,GI50,MDA-MB-435 melanoma,> 100 µM
same,TGI,MDA-MB-435 melanoma,> 100 µM
same,GI50,SF-539 CNS,> 100 µM
same,TGI,SF-539 CNS,> 100 µM
same,GI50,A498 renal,> 95.6 µM
same,TGI,A498 renal,> 100 µM
same,GI50,KM12 colon,0.364 µM
same,TGI,KM12 colon,> 100 µM
same,GI50,HT29 colon,18 µM
same,TGI,HT29 colon,> 100 µM
same,GI50,SK-MEL-28 melanoma,> 79.1 µM
same,TGI,SK-MEL-28 melanoma,> 100 µM
same,GI50,UACC-257 melanoma,> 100 µM
same,TGI,UACC-257 melanoma,> 100 µM
same,GI50,HL-60(TB) leukemia,63.8 µM
same,TGI,HL-60(TB) leukemia,> 100 µM
same,GI50,NCI-H322M lung,23.6 µM
same,TGI,NCI-H322M lung,> 78.6 µM
same,GI50,MALME-3M melanoma,26.2 µM
same,TGI,MALME-3M melanoma,> 100 µM
same,GI50,LOX IMVI melanoma,> 71.9 µM
same,TGI,LOX IMVI melanoma,> 100 µM
same,GI50,MCF7 breast,17.5 µM
same,TGI,MCF7 breast,> 100 µM
same,GI50,SN12C renal,61.6 µM
same,TGI,SN12C renal,> 100 µM
same,GI50,CCRF-CEM leukemia,57.1 µM
same,TGI,CCRF-CEM leukemia,> 100 µM
same,GI50,NCI-H23 lung,24.3 µM
same,TGI,NCI-H23 lung,> 100 µM
same,GI50,TK-10 renal,> 92.9 µM
same,TGI,TK-10 renal,> 100 µM
same,GI50,DU-145 prostate,49.8 µM
same,TGI,DU-145 prostate,> 100 µM
same,GI50,ACHN renal,11.4 µM
same,TGI,ACHN renal,> 24.9 µM
same,GI50,T-47D breast,57.2 µM
same,TGI,T-47D breast,> 100 µM
same,GI50,NCI-H226 lung,23 µM
same,TGI,NCI-H226 lung,> 73.1 µM
same,GI50,U251 glioblastoma,> 100 µM
same,TGI,U251 glioblastoma,> 100 µM
same,GI50,PC-3 prostate,> 100 µM
same,TGI,PC-3 prostate,> 100 µM
same,GI50,NCI-H460 NSCLC,35.7 µM
same,TGI,NCI-H460 NSCLC,> 100 µM
same,GI50,MDA-MB-231 breast,14.6 µM
same,TGI,MDA-MB-231 breast,84.5 µM
same,GI50,HCT-116 colon,32.1 µM
same,TGI,HCT-116 colon,> 100 µM
same,GI50,SF-268 CNS,47.3 µM
same,TGI,SF-268 CNS,> 100 µM
same,GI50,UACC-62 melanoma,32.8 µM
same,TGI,UACC-62 melanoma,> 100 µM
same,GI50,SK-OV-3 ovarian,68.2 µM
same,TGI,SK-OV-3 ovarian,> 100 µM
same,GI50,OVCAR-5 ovarian,37.7 µM
same,TGI,OVCAR-5 ovarian,> 100 µM
same,GI50,SNB-19 CNS,> 100 µM
same,TGI,SNB-19 CNS,> 100 µM
same,GI50,786-0 renal,49.7 µM
same,TGI,786-0 renal,> 100 µM
same,GI50,UO-31 renal,37.3 µM
same,TGI,UO-31 renal,> 54 µM
same,GI50,HOP-62 NSCLC,15.7 µM
same,TGI,HOP-62 NSCLC,> 100 µM
same,GI50,HCC-2998 colon,> 100 µM
same,TGI,HCC-2998 colon,> 100 µM
same,GI50,NCI-H522 lung,33.7 µM
same,TGI,NCI-H522 lung,99.5 µM
same,GI50,SK-MEL-5 melanoma,50.2 µM
same,TGI,SK-MEL-5 melanoma,> 100 µM
same,GI50,MDA-MB-468 breast,23.8 µM
same,TGI,MDA-MB-468 breast,> 86.2 µM
same,GI50,M14 melanoma,56.3 µM
same,TGI,M14 melanoma,> 100 µM
same,GI50,IGROV1 ovarian,26.1 µM
same,TGI,IGROV1 ovarian,> 83.6 µM
same,GI50,COLO 205 colon,11.1 µM
same,TGI,COLO 205 colon,> 84.1 µM
same,GI50,OVCAR-8 ovarian,> 100 µM
same,TGI,OVCAR-8 ovarian,> 100 µM
same,GI50,BT-549 breast,> 100 µM
same,TGI,BT-549 breast,> 100 µM
same,GI50,CAKI-1 renal,26.5 µM
same,TGI,CAKI-1 renal,> 100 µM
same,GI50,OVCAR-4 ovarian,> 100 µM
same,TGI,OVCAR-4 ovarian,> 100 µM
same,GI50,SW-620 colon,> 100 µM
same,TGI,SW-620 colon,> 100 µM
same,GI50,NCI/ADR-RES ovarian,41.6 µM
same,TGI,NCI/ADR-RES ovarian,> 100 µM
